# Marks after values point to notes of the source that are not given here. Square brackets hold non-standard residues; d marks the D form. Peptide text beside a SMILES is read from it. dPhe(4-Cl) = N[C@H](Cc1ccc(Cl)cc1)C(=O)O; d2Nal = N[C@H](Cc1ccc2ccccc2c1)C(=O)O; dCit = NC(=O)NCCC[C@@H](N)C(=O)O; d3Pal = N[C@H](Cc1cccnc1)C(=O)O
# System: pubertal Hereford-cross beef heifers
# Experiment: Two 1.5 mg Cetrorelix injections at pre-selection, growing or late-static phase in beef heifers (Example 4)
# Format: in vivo, cattle
# Procedure: The study was conducted on pubertal Hereford-cross beef heifers (n=32) at the U. Sask. Livestock and Forage Centre of Excellence (LFCE). Initial transrectal ultrasonography was performed to confirm the puberty by the presence or absence of a corpus luteum (CL). Animals were also weighed at this time. Animals with a functional CL were administered an intramuscular (im) injection of prostaglandin F2a analog (cloprostenol) to cause CL regression and ovulation. Daily ultrasonography was performed to detect ovulation and to record the number, size and location of follicles and CL in both ovaries. The day of emergence of a follicular wave was initially estimated by sudden increase in the number of 3-4 mm follicles and confirmed retrospectively as the day on which the dominant follicle was first detected at 4 to 5 mm in size (defined as Day 0). Follicular and hormonal data (see next section for endpoints) from all animals was collected for one complete inter-ovulatory interval.
# Animals were randomized into 4 groups based on the day of ovulation. Group 1 (control group) heifers were given 3 mL normal saline (sham-treated negative control; n=3 on Days 1 and 2, n=3 on Days 3 and 4, n=2 on Days 6 and 7). Group 2 heifers were given 1.5 mg Cetrorelix on Days 1 and 2 (pre-selection dominant follicle phase; n=8), Group 3 heifers were given Cetrorelix on Days 3 and 4 (dominant follicle growing phase; n=8), and Group 4 heifers were given Cetrorelix on Days 6 and 7 (dominant follicle late-static/early regressing phase; n=8). The dose of Cetrorelix (1.5 mg per treatment), route of administration (intramuscular) and duration of treatment (i.e., 2 doses at 24 hr interval) were selected based on Example 2 and previous studies in cattle (Ulker et al, 2001).
# Changes in the size of the dominant follicle, largest subordinate follicle and CL, and the number of follicles in 3-5, 6-8, and 9+mm size categories were recorded daily from initial ovulation to the first post-treatment ovulation. The inter-wave interval was determined based on duration between emergence of successive follicular waves.
# Blood samples were also collected every 12 hours by jugular venipuncture for measurement of plasma LH concentrations from −36 hr to +72 hr of treatment. Blood samples were collected daily for measurement of plasma progesterone concentrations from 1 day before to 7 days after treatment. A Proc Mixed repeated measures analysis of variance (SAS version 9.4) was performed to compare serial data (follicle size, follicle numbers, CL size, plasma LH, plasma progesterone).
smiles,measurement,setting,value
"CC(=O)N[C@H](Cc1ccc2ccccc2c1)C(=O)N[C@H](Cc1ccc(Cl)cc1)C(=O)N[C@H](Cc1cccnc1)C(=O)N[C@@H](CO)C(=O)N[C@@H](Cc1ccc(O)cc1)C(=O)N[C@H](CCCNC(N)=O)C(=O)N[C@@H](CC(C)C)C(=O)N[C@@H](CCCNC(=N)N)C(=O)N1CCC[C@H]1C(=O)N[C@H](C)C(N)=O [Cetrorelix, N-acetyl-3-(2-naphthyl)-D-alanyl-4-chloro-D-phenylalanyl-3-(3-pyridyl)-D-alanyl-L-seryl-L-tyrosyl-D-citrullyl-L-leucyl-L-arginyl-L-prolyl-D-alaninamide] (Ac-[d2Nal][dPhe(4-Cl)][d3Pal]SY[dCit]LRP[dA]-NH2)",Days from treatment to next wave emergence,1.5 mg i/m on Day 1-2 of wave,5.9 ± 0.4 days
same,Days from treatment to next wave's dominant follicle at 9 mm,1.5 mg i/m on Day 1-2 of wave,9.1 ± 0.8 days
same,Interovulatory Interval,1.5 mg i/m on Day 1-2 of wave,21.5 ± 1.4
same,Interwave Interval,1.5 mg i/m on Day 1-2 of wave,6.9 ± 0.4^b
same,Largest Dominant Follicle Diameter (mm),1.5 mg i/m on Day 1-2 of wave,10.3 ± 0.6^b mm
same,Largest Subordinate Follicle Diameter (mm),1.5 mg i/m on Day 1-2 of wave,7.1 ± 0.5^b mm
same,Number of Follicles at WE,1.5 mg i/m on Day 1-2 of wave,19.3 ± 2.0
same,Time to Largest Dominant (days),1.5 mg i/m on Day 1-2 of wave,6.3 ± 0.9^ab days
same,Time to Largest Subordinate,1.5 mg i/m on Day 1-2 of wave,3.1 ± 0.6 days
same,Length of Wave 2,"1.5 mg i/m on Day 1-2 of wave, in d (unit assumed)",9.3 ± 0.7
same,Days from treatment to next wave emergence,1.5 mg i/m on Day 3-4 of wave,5.8 ± 0.5 days
same,Days from treatment to next wave's dominant follicle at 9 mm,1.5 mg i/m on Day 3-4 of wave,9.5 ± 0.5 days
same,Interovulatory Interval,1.5 mg i/m on Day 3-4 of wave,20.3 ± 0.4
same,Interwave Interval,1.5 mg i/m on Day 3-4 of wave,8.9 ± 0.4^ab
same,Largest Dominant Follicle Diameter (mm),1.5 mg i/m on Day 3-4 of wave,10.6 ± 0.4^b mm
same,Largest Subordinate Follicle Diameter (mm),1.5 mg i/m on Day 3-4 of wave,6.9 ± 0.4^b mm
same,Number of Follicles at WE,1.5 mg i/m on Day 3-4 of wave,20.9 ± 2.7 ^
same,Time to Largest Dominant (days),1.5 mg i/m on Day 3-4 of wave,4.6 ± 0.6^b days
same,Time to Largest Subordinate (days),1.5 mg i/m on Day 3-4 of wave,4.0 ± 1.0^ days
same,Length of Wave 2,"1.5 mg i/m on Day 3-4 of wave, in d (unit assumed)",9.1 ± 0.8
same,Days from treatment to next wave emergence,1.5 mg i/m on Day 6-7 of wave,4.3 ± 0.6 days
same,Days from treatment to next wave's dominant follicle at 9 mm,1.5 mg i/m on Day 6-7 of wave,8.3 ± 0.7 days
same,Interovulatory Interval,1.5 mg i/m on Day 6-7 of wave,19.6 ± 0.6
same,Interwave Interval,1.5 mg i/m on Day 6-7 of wave,10.3 ± 0.6^a
same,Largest Dominant Follicle Diameter (mm),1.5 mg i/m on Day 6-7 of wave,12.9 ± 0.4^a mm
same,Largest Subordinate Follicle Diameter (mm),1.5 mg i/m on Day 6-7 of wave,7.9 ± 0.6^b mm
same,Length of Wave 2,1.5 mg i/m on Day 6-7 of wave,8.3 ± 0.5
same,Number of Follicles at WE,1.5 mg i/m on Day 6-7 of wave,15.8 ± 1.1
same,Time to Largest Dominant (days),1.5 mg i/m on Day 6-7 of wave,6.8 ± 0.9^ab days
same,Time to Largest Subordinate,1.5 mg i/m on Day 6-7 of wave,3.9 ± 0.5 days
same,Wave emergence after the first Cetrorelix treatment irrespective of phase of dominant follicle,"two 1.5 mg (about 3.75 ug/kg) i/m doses 24 hr apart, groups combined",5.3 ± 0.3 days
same,Next wave dominant follicle ready for ovulation,two 1.5 mg i/m doses,9 days
